Columns and labels:
[1] = tested on: mouse TEL-EGFR-BaF3 (stably expressing TEL-EGFR activated kinase); experiment: Cell growth, Cell Titer-Glo; type: cell-based; settings: TEL-EGFR-BaF3, 72 hrs, read-out: Half inhibitory concentration IC50
Source text: (§1) We further assessed the selectivity of Compound 1 to inhibit the proliferation of cancer cells, by testing the effect of Btk inhibitor on the growth of cancer cells. In the example, we used B-lymphoma cell Ramos, cervical cancer cells HeLa, prostate cancer cells DU145, RV-1 and C4-2, colon cancer cells HCT116, blood cancer cells K562, B-cell lymphoma cells U2932, diffuse large B-cell lymphoma cells OCI-LY10, diffuse histiocytic lymphoma cells SU-DHL-2, diffuse large B-cell lymphoma cells TMD8, human non-small cell lung cancer cells H1975 (expressing EGFR L858R/T790M double mutant gene), human lung adenocarcinoma cells A549 (expressing wild-type EGFR gene), human non-small cell lung cancer cells H460 (expressing wild-type EGFR gene), mantel cell lymphoma (MCL) cells Z-138, EB virus infected human peripheral lymphocyte cells JVM-2, MCL cells REC-1, leukemia cells AML-3, acute promyelocytic leukemia cell line NB-4(Lu+), MDS-RAEB (myelodysplastic syndrome-excessive blasts) cell line SKM-1 human leukemia cell Nomo-1, human B-cell leukemia cell line NALM6, human leukocyte leukemia cells HEL, human T-cell lymphoma cells PF-382, acute myelocytic leukemia (AML) cell line MOLM14, AML cell line MOLM13, human Burkitt's lymphoma cells Namalwa, mouse pro-B cells BaF3, all of where were purchased from ATCC. Also used were mouse TEL-EGFR-BaF3 (stably expressing TEL-EGFR activated kinase), mouse TEL-EGFR/T790-BaF3 cells (stably expressing TEL-EGFR-T790M activated mutant kinase), mouse TEL-EGFR/L858R-BaF3 cells (stably expressing TEL-EGFR-L858R activated mutant kinase), mouse TEL-EGFR/T790/L858R-BaF3 (stably expressing TEL-EGFR-T790M/L858R activated mutant kinase), mouse TEL-BMX-BaF3 cells (stably expressing TEL-BMX activated kinase), mouse TEL-JAK1-BaF3 cells (stably expressing TEL-JAK1 activated kinase), mouse TEL-JAK2-BaF3 cells (stably expressing TEL-JAK2 activated kinase), mouse TEL-JAK3-BaF3 cells (stably expressing TEL-JAK3 activated kinase), where were all established by our laboratory via the following method: the kinase domain sequences of human EGFR, BMX, JAK1, JAK2, JAK3 were amplified respectively by PCR, and these kinase were inserted into the MSCV-Puro vectors with N-terminal TEL segment (Clontech); if there was a mutation, the mutation of the corresponding site was conducted by Site-Directed Mutagenesis kit (Stratagene); the resultants were stably transfected into mouse BaF3 cells by the means of retrovirus, and the IL-3 growth factors were removed, and eventually the EGFR, BMX, JAK1, JAK2, JAK3-transferred protein dependent cell lines were obtained.
(§2) In the example, different concentrations (0.000508 μM, 0.00152 μM, 0.00457 μM, 0.0137 μM, 0.0411 μM, 0.123 μM, 0.370 μM, 1.11 μM, 3.33 μM, 10 μM) of Compound 1 and Compound 19 were added into above cells, and were incubated for 72 hrs. The number of viable cells was determined by quantitating ATP in viable cells using Cell Titer-Glo® (Promega, U.S.) chemiluminescence cell viability assay kit.

[2] = tested on: mouse TEL-EGFR/T790/L858R-BaF3 (stably expressing TEL-EGFR-T790M/L858R activated mutant kinase); experiment: Cell growth, Cell Titer-Glo; type: cell-based; settings: TEL-EGFR/T790/L858R-BaF3, 72 hrs, read-out: Half inhibitory concentration IC50
Source text: as §1, §2

[3] = tested on: mouse TEL-JAK2-BaF3 cells (stably expressing TEL-JAK2 activated kinase); experiment: Cell growth, Cell Titer-Glo; type: cell-based; settings: TEL-JAK2-BaF3, 72 hrs, read-out: Half inhibitory concentration IC50
Source text: as §1, §2

[4] = tested on: mouse TEL-JAK1-BaF3 cells (stably expressing TEL-JAK1 activated kinase); experiment: Cell growth, Cell Titer-Glo; type: cell-based; settings: TEL-JAK1-BaF3, 72 hrs, read-out: Half inhibitory concentration IC50
Source text: as §1, §2

[5] = tested on: mouse TEL-BMX-BaF3 cells (stably expressing TEL-BMX activated kinase); experiment: Cell growth, Cell Titer-Glo; type: cell-based; settings: TEL-BMX-BaF3, 72 hrs, read-out: Half inhibitory concentration IC50
Source text: as §1, §2

[6] = tested on: mouse TEL-EGFR/T790-BaF3 cells (stably expressing TEL-EGFR-T790M activated mutant kinase); experiment: Cell growth, Cell Titer-Glo; type: cell-based; settings: TEL-EGFR/T790-BaF3, 72 hrs, read-out: Half inhibitory concentration IC50
Source text: as §1, §2

[7] = tested on: mouse TEL-EGFR/L858R-BaF3 cells (stably expressing TEL-EGFR-L858R activated mutant kinase); experiment: Cell growth, Cell Titer-Glo; type: cell-based; settings: TEL-EGFR/L858R-BaF3, 72 hrs, read-out: Half inhibitory concentration IC50
Source text: as §1, §2

[8] = tested on: SD rat adjuvant arthritis (AA) model; experiment: SD rat adjuvant arthritis (AA) model, arthritis index; type: in vivo
Protocol: In this example, SD rat adjuvant arthritis (AA) model (purchased from the Experimental Animal Center of Anhui Province) was used. PCI-32765 and methotrexate (MTX) were used as positive control (both purchased from Shanghai Chemexpress). The therapeutic effect of Compound 1 on AA rats was studied via the combination of in vivo and in vitro administration. 10 mg/nal of complete Freund's adjuvant (CFA, purchased from Shanghai Chemexpress) was mixed well, and 0.1 ml of CFA was intracutaneously injected into each rat at right posterior plantar to induce inflammation. The normal group was injected with saline via the same method. On the 17th day, the successful modeling male SD rats were randomly divided into 7 groups with 10 rats in each group, namely the model group, the small/medium/large dose of Compound 1 group (12.5, 25, 50 mg/kg/per administration, intraperitoneal injection, one administration per day for 16 days), the Compound 19 group (25 mg/kg/per administration, intraperitoneal injection, one administration per day for 16 days), the positive control PCI-32765 group (25 mg/kg/per administration, intraperitoneal injection, one administration per day for 16 days), the MTX group (0.5 mg/kg, intragastrical, one administration every 3 days, totally 6 times). The rats in the model group were intraperitoneally injected with the same amount of DMSO solution.

SMILES	IC50 [1] [nM]	IC50 [2] [nM]	IC50 [3] [nM]	IC50 [4] [nM]	IC50 [5] [nM]	IC50 [6] [nM]	IC50 [7] [nM]	effect on arthritis index of rats compared with the model group ([8]; 12.5 mg/kg intraperitoneal once per day, starting from day 21)	effect on arthritis index of rats ([8]; 12.5 mg/kg intraperitoneal once per day, starting from day 24)	effect on the rat arthritis index ([8]; 25 mg/kg intraperitoneal once per day for 16 days)
C=CC(=O)Nc1cc(-n2c(=O)ccc3cnc4ccc(-n5cccn5)cc4c32)ccc1C [Compound 1, N-(2-methyl-5-(2-oxo-9-(1H-pyrazol-1-yl)benzo[H][1,6]naphthyridin-1(2H)-yl)phenyl)acrylamide]	2660	1590	2100	1600	18	918	292	significantly reduced	significantly reduce	
CCC(=O)Nc1cc(-n2c(=O)ccc3cnc4ccc(-n5cccn5)cc4c32)ccc1C [Compound 19, N-(2-methyl-5-(2-oxo-9-(1H-pyrazol-1-yl)benzo[H][1,6]naphthyridin-1(2H)-yl)phenyl) propionamide]	> 10000	> 10000	> 10000	> 10000	> 10000	> 10000	> 10000			little effect

— patent publication US9814709B2, “Bruton's tyrosine kinase inhibitor” (HEFEI INSTITUTES OF PHYSICAL SCIENCE, CHINESE ACADEMY OF …, priority 2014, dated 2017)
